Data taken from PubChem BioAssay AID1963830 (Molecular Pharmacology Branch, DTP, NCI, 2024).

Test system: 922993-354-T-J3-PDC complex spheroid viability
Assay: Anticancer human tumor 922993-354-T-J3-PDC patient-derived endometrial carcinoma cell line growth inhibition [POLQ]
Conditions: for IC50: curve of first compound; for viability, T/C: stronger effect = lower value; active = viability on the fitted dose curve at most 10% of control; inactive = the rest
Description: Multicellular complex tumor spheroid response to Polymerase (POL) inhibitors (novobiocin, ART-558, RP6685) in combination with a variety of drugs and investigational agents in selected tumor cell lines
The POL inhibitors (novobiocin, ART-558, and RP6685) were evaluated both individually and in combination with standard of care and investigational anticancer small molecules within a complex spheroid model of solid tumors. . Complex spheroids include a stromal component modeled by human endothelial cells (HUVEC) and fibroblasts modeled by human mesenchymal stem cells (MSCs). The concentration ranges selected for each drug and investigational agent were based upon clinically achievable concentrations if the clinical Cmax of the agent was known.
Compounds. The drugs and investigational agents: novobiocin (NSC847541), ART-558 (NSC835418), RP-6685 (NSC848927), peposertib (NSC802822), ceralasertib (NSC780249), elimusertib (NSC800525), camonsertib (NSC841442), AZD-1390 (NSC803789), olaparib (NSC753686), talazoparib (NSC767125), rucaparib (NSC756644), sotorasib (NSC818433), MRTX-1133 (NSC836407), SN-38 (NSC673596), topotecan (NSC609699), epotoside (NSC141540), doxorubicin (NSC123127), gemcitabine (NSC613327), 5-fluorouracil (NSC19893), paclitaxel (NSC125973), vemurafenib (NSC761431), MSA-2 (NSC828583), SN-011 (NSC837082), adavosertib (NSC754352), prexasertib (NSC758257), carboplatin (NSC241240) and oxaliplatin (NSC266046), were obtained from the National Cancer Institute (NCI) Developmental Therapeutics Program Chemical Repository (21). The FDA-approved anticancer drug set is available from the Developmental Therapeutics Program at https://dtp.cancer.gov/organization/dscb/obtaining/. […] The stock solutions were prepared in dimethyl sulfoxide (DMSO, Sigma-Aldrich, St. Louis, MO, cat. D2650), except for the platinum compounds which were prepared in saline (Quality Biological, Gaithersburg, MD, cat. 114-055-101), at 800-fold the tested concentration and stored at -70 degrees C prior to their use. All drugs and investigational agents were tested over a range starting from a high concentration at or near the clinical Cmax and decreasing in half-log increments. If the clinical Cmax for an agent had not been determined, the highest concentration tested was 10 microM, except for SN-38, which was tested at a high concentration of 1 microM.
Cell Culture. All cells were maintained in an incubator at 37 degrees C and 5% CO2 with 95% humidity. The PDC lines were cultured according to standard operating procedures established by the NCI PDMR (https://pdmr.cancer.gov). Table 3 of the manuscript, lists the cell lines along with the number of the three cell types plated to form the mct-spheroids and media for tumor cell growth. After thawing, all PDC lines, except 997537-175-T-J1-PDC and 415267-285-R-J2-PDC, were cultured in Matrigel-coated flasks prepared with a working solution of 1X Ham's F-12 nutrient mix, without supplementation (Thermo Fisher Scientific, cat. 11765054), 100 U/mL penicillin-streptomycin (Thermo Fisher Scientific, cat. 15140122), and 2.5% Matrigel (Corning Inc., Corning, NY, cat. 354248) for the first three passages. The two PDC lines 997537-175-T-J1-PDC and 415267-285-R-J2-PDC were cultured on uncoated flasks. The 857933-349-R-J2-PDC line was cultured in 6C/Colon 1B media containing advanced DMEM/F-12 (Thermo Fisher Scientific, cat. 12634028), 10 mM HEPES (Thermo Fisher Scientific, cat. 15630080), 1X GlutaMAX supplement (Thermo Fisher Scientific, cat. 35050061), 0.1 mg/mL primocin (InvivoGen, San Diego, CA, cat. ant-pm-2), 10% defined fetal bovine serum, heat inactivated (HyClone Laboratories Inc., Logan, UT, cat. SH30070.03HI), 50% L-WRN conditioned media (ATCC, cat. CRL-3276), 1.25 mM N-Acetyl-L-cysteine (Sigma-Aldrich, cat. A9165), 10 mM nicotinamide (Sigma-Aldrich, cat. N0636), 1X B-27 supplement (Thermo Fisher Scientific, cat. 17504044), 1X N-2 supplement (Thermo Fisher Scientific, cat. […]

[1] = second compound 0.0316 µM, first compound 0.00316 µM
[2] = second compound 0.0316 µM, first compound 0.01 µM
[3] = second compound 0.0316 µM, first compound 0.0316 µM
[4] = second compound 0.0316 µM, first compound 0.1 µM
[5] = second compound 0.1 µM, first compound 0.00316 µM
[6] = second compound 0.1 µM, first compound 0.01 µM
[7] = second compound 0.1 µM, first compound 0.0316 µM
[8] = second compound 0.1 µM, first compound 0.1 µM
[9] = second compound 0.316 µM, first compound 0.00316 µM
[10] = second compound 0.316 µM, first compound 0.01 µM
[11] = second compound 0.316 µM, first compound 0.0316 µM
[12] = second compound 0.316 µM, first compound 0.1 µM
[13] = second compound 1 µM, first compound 0.00316 µM
[14] = second compound 1 µM, first compound 0.01 µM
[15] = second compound 1 µM, first compound 0.0316 µM
[16] = second compound 1 µM, first compound 0.1 µM
[17] = second compound 3.16 µM, first compound 0.00316 µM
[18] = second compound 3.16 µM, first compound 0.01 µM
[19] = second compound 3.16 µM, first compound 0.0316 µM
[20] = second compound 3.16 µM, first compound 0.1 µM
[21] = second compound 10 µM, first compound 0.00316 µM
[22] = second compound 10 µM, first compound 0.01 µM
[23] = second compound 10 µM, first compound 0.0316 µM
[24] = second compound 10 µM, first compound 0.1 µM
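Also: spheroids exposed to the agents for one week.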
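For viability, T/C in this document: 100% = DMSO vehicle control wells.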

CC[C@@]1(O)C(=O)OCc2c1cc1n(c2=O)Cc2cc3c(CN(C)C)c(O)ccc3nc2-1 + COC1C(OC(N)=O)C(O)C(Oc2ccc3c(O)c(NC(=O)c4ccc(O)c(CC=C(C)C)c4)c(=O)oc3c2C)OC1(C)C
70.7 nM: IC50 (second compound 3.16 µM)
84.1 nM: IC50 (second compound 0.316 µM)
78.3 nM: IC50 (second compound 10 µM)
inactive: viability, T/C (second compound 0.0316 µM, first compound 0.000316 µM) 102% | viability, T/C (second compound 0.0316 µM, first compound 0.001 µM) 83% | viability, T/C [1] 98.2% | viability, T/C [2] 93.5% | viability, T/C [3] 76% | viability, T/C [4] 41.3% | viability, T/C (second compound 0.1 µM, first compound 0.000316 µM) 100% | viability, T/C (second compound 0.1 µM, first compound 0.001 µM) 101% | viability, T/C [5] 102% | viability, T/C [6] 98.8% | viability, T/C [7] 75.3% | viability, T/C [8] 39.1% | viability, T/C (second compound 0.316 µM, first compound 0.000316 µM) 100% | viability, T/C (second compound 0.316 µM, first compound 0.001 µM) 96.6% | viability, T/C [9] 100% | viability, T/C [10] 96.5% | viability, T/C [11] 85.9% | viability, T/C [12] 43.6% | viability, T/C (second compound 1 µM, first compound 0.000316 µM) 108% | viability, T/C (second compound 1 µM, first compound 0.001 µM) 98.7% | viability, T/C [13] 96.9% | viability, T/C [14] 94.6% | viability, T/C [15] 73.3% | viability, T/C [16] 39.2% | viability, T/C (second compound 3.16 µM, first compound 0.000316 µM) 93.9% | viability, T/C (second compound 3.16 µM, first compound 0.001 µM) 99% | viability, T/C [17] 89.7% | viability, T/C [18] 90.9% | viability, T/C [19] 79% | viability, T/C [20] 37.2% | viability, T/C (second compound 10 µM, first compound 0.000316 µM) 92.6% | viability, T/C (second compound 10 µM, first compound 0.001 µM) 76.9% | viability, T/C [21] 88.3% | viability, T/C [22] 84.4% | viability, T/C [23] 84.6% | viability, T/C [24] 40.7%
74.9 nM: IC50 (second compound 0.0316 µM)
70.3 nM: IC50 (second compound 1 µM)
70.8 nM: IC50 (second compound 0.1 µM)

COc1cccc(OCCCN)c1-c1cc(Nc2cnc(C#N)cn2)n[nH]1 + Cc1cccc(N(C)C(=O)C2C(O)CCN2c2nc(C)cc(C(F)(F)F)c2C#N)c1
603 nM: IC50 (second compound 0.0316 µM)
active: viability, T/C (second compound 10 µM, first compound 1 µM) 9.72%
585 nM: IC50 (second compound 0.1 µM)
599 nM: IC50 (second compound 1 µM)
610 nM: IC50 (second compound 0.316 µM)
436 nM: IC50 (second compound 3.16 µM)
140 nM: IC50 (second compound 10 µM)
inactive: viability, T/C [1] 107% | viability, T/C [2] 107% | viability, T/C [3] 103% | viability, T/C [4] 104% | viability, T/C (second compound 0.0316 µM, first compound 0.316 µM) 89% | viability, T/C (second compound 0.0316 µM, first compound 1 µM) 19.8% | viability, T/C [5] 104% | viability, T/C [6] 104% | viability, T/C [7] 103% | viability, T/C [8] 97.7% | viability, T/C (second compound 0.1 µM, first compound 0.316 µM) 91.3% | viability, T/C (second compound 0.1 µM, first compound 1 µM) 14.5% | viability, T/C [9] 102% | viability, T/C [10] 101% | viability, T/C [11] 101% | viability, T/C [12] 98% | viability, T/C (second compound 0.316 µM, first compound 0.316 µM) 93.5% | viability, T/C (second compound 0.316 µM, first compound 1 µM) 17.2% | viability, T/C [13] 102% | viability, T/C [14] 98.8% | viability, T/C [15] 103% | viability, T/C [16] 98% | viability, T/C (second compound 1 µM, first compound 0.316 µM) 92.4% | viability, T/C (second compound 1 µM, first compound 1 µM) 16% | viability, T/C [17] 103% | viability, T/C [18] 106% | viability, T/C [19] 101% | viability, T/C [20] 99.5% | viability, T/C (second compound 3.16 µM, first compound 0.316 µM) 65.1% | viability, T/C (second compound 3.16 µM, first compound 1 µM) 10.7% | viability, T/C [21] 99.2% | viability, T/C [22] 101% | viability, T/C [23] 94.3% | viability, T/C [24] 65.5% | viability, T/C (second compound 10 µM, first compound 0.316 µM) 13.2%
